Assay results taken from PMC4770307, “New Synthetic Routes to Triazolo-benzodiazepine Analogues: Expanding the Scope of the Bump-and-Hole Approach for Selective Bromo and Extra-Terminal (BET) Bromodomain Inhibition” (Journal of Medicinal Chemistry, 2015).

Experiments:
Brd2(2) [1] = settings: reported Kd; cited from earlier work
Brd2(1)V103A = target: T1, Brd2(1)V103A (Homo sapiens, UniProt P25440, V103A); test: Differential scanning fluorimetry (DSF) thermal shift; format: binding; settings: compound 10 μM (LightCycler480) or 30 μM (Mx3005P), read-out: Thermal stabilization (ΔTm)
T1 construct: first bromodomain (e.g., Brd2(1)) versus second bromodomain (e.g., Brd2(2)); His6 (TEV-cleavable) (N); made in house; host or cells: E. coli BL21(DE3)

Brd2(1) [2] = target: T2, Brd2(1) (Homo sapiens, UniProt P25440); test: as above; format: binding; settings: compound 10 μM (LightCycler480) or 30 μM (Mx3005P), read-out: Thermal stabilization (ΔTm)
T2 construct: first bromodomain (e.g., Brd2(1)) versus second bromodomain (e.g., Brd2(2)); His6 (TEV-cleavable) (N); made in house; host or cells: E. coli BL21(DE3); plasmid a gift of the SGC Oxford

Brd2(2) [3] = target: T3, Brd2(2) (Homo sapiens, UniProt P25440); test: as above; format: binding; settings: compound 10 μM (LightCycler480) or 30 μM (Mx3005P), read-out: Thermal stabilization (ΔTm)
T3 construct: first bromodomain (e.g., Brd2(1)) versus second bromodomain (e.g., Brd2(2)); His6 (TEV-cleavable) (N); made in house; host or cells: E. coli BL21(DE3); plasmid a gift of the SGC Oxford

Brd2(2)V376A = target: T4, Brd2(2)V376A (Homo sapiens, UniProt P25440, V376A); test: as above; format: binding; settings: compound 10 μM (LightCycler480) or 30 μM (Mx3005P), read-out: Thermal stabilization (ΔTm)
T4 construct: first bromodomain (e.g., Brd2(1)) versus second bromodomain (e.g., Brd2(2)); His6 (TEV-cleavable) (N); made in house; host or cells: E. coli BL21(DE3)

Brd2(2)L383I [4] = target: T5, Brd2(2)L383I (Homo sapiens, UniProt P25440, L383I); test: as above; format: binding; settings: compound 10 μM (LightCycler480) or 30 μM (Mx3005P), read-out: Thermal stabilization (ΔTm)
T5 construct: first bromodomain (e.g., Brd2(1)) versus second bromodomain (e.g., Brd2(2)); His6 (TEV-cleavable) (N); made in house; host or cells: E. coli BL21(DE3)

Brd2(2)L383A [5] = target: T6, Brd2(2)L383A (Homo sapiens, UniProt P25440, L383A); test: as above; format: binding; settings: compound 10 μM (LightCycler480) or 30 μM (Mx3005P), read-out: Thermal stabilization (ΔTm)
T6 construct: first bromodomain (e.g., Brd2(1)) versus second bromodomain (e.g., Brd2(2)); His6 (TEV-cleavable) (N); made in house; host or cells: E. coli BL21(DE3)

Brd2(1)L110A [6] = target: T7, Brd2(1)L110A (Homo sapiens, UniProt P25440, L110A); test: as above; format: binding; settings: compound 10 μM (LightCycler480) or 30 μM (Mx3005P), read-out: Thermal stabilization (ΔTm)
T7 construct: first bromodomain (e.g., Brd2(1)) versus second bromodomain (e.g., Brd2(2)); His6 (TEV-cleavable) (N); made in house; host or cells: E. coli BL21(DE3)

[7] = system: WT and mutant Brd2(1) and Brd2(2) proteins; test: DSF, WT and mutant proteins (statements in words); format: binding; settings: mutant compared with WT Brd2 proteins
Brd4(2) = Brd4(2) (Homo sapiens, UniProt O60885); test: Isothermal titration calorimetry (ITC); format: binding; settings: ITC at 30 °C, […] DMSO
Brd2(1)W097H = target: T8, Brd2(1)W097H (Homo sapiens, UniProt P25440, W97H); test: Differential scanning fluorimetry (DSF) thermal shift; format: binding; settings: compound 10 μM (LightCycler480) or 30 μM (Mx3005P), read-out: Thermal stabilization (ΔTm)
T8 construct: first bromodomain (e.g., Brd2(1)) versus second bromodomain (e.g., Brd2(2)); His6 (TEV-cleavable) (N); made in house; host or cells: E. coli BL21(DE3)

Brd2(2)W370F = target: T9, Brd2(2)W370F (Homo sapiens, UniProt P25440, W370F); test: as above; format: binding; settings: compound 10 μM (LightCycler480) or 30 μM (Mx3005P), read-out: Thermal stabilization (ΔTm)
T9 construct: first bromodomain (e.g., Brd2(1)) versus second bromodomain (e.g., Brd2(2)); His6 (TEV-cleavable) (N); made in house; host or cells: E. coli BL21(DE3)

Brd2(2) [8] = target: T3, Brd2(2); test: Isothermal titration calorimetry (ITC); format: binding
Brd2(2) [9] = test: Isothermal titration calorimetry (ITC); format: binding; settings: Brd2(2) over Brd2(1), from ITC Kd's
Brd2(1) [10] = target: T2, Brd2(1); test: Isothermal titration calorimetry (ITC); format: binding
Brd4(1) = Brd4(1) (Homo sapiens, UniProt O60885); test: Isothermal titration calorimetry (ITC); format: binding; settings: ITC at 30 °C, […] DMSO
Brd2(2)W370H = target: T10, Brd2(2)W370H (Homo sapiens, UniProt P25440, W370H); test: Differential scanning fluorimetry (DSF) thermal shift; format: binding; settings: compound 10 μM (LightCycler480) or 30 μM (Mx3005P), read-out: Thermal stabilization (ΔTm)
T10 construct: first bromodomain (e.g., Brd2(1)) versus second bromodomain (e.g., Brd2(2)); His6 (TEV-cleavable) (N); made in house; host or cells: E. coli BL21(DE3)

Brd2(1)W097F = target: T11, Brd2(1)W097F (Homo sapiens, UniProt P25440, W97F); test: as above; format: binding; settings: compound 10 μM (LightCycler480) or 30 μM (Mx3005P), read-out: Thermal stabilization (ΔTm)
T11 construct: first bromodomain (e.g., Brd2(1)) versus second bromodomain (e.g., Brd2(2)); His6 (TEV-cleavable) (N); made in house; host or cells: E. coli BL21(DE3)

[11] = system: leucine/alanine mutant BET bromodomains; design: method as in PMID 25323695; settings: cited from earlier work
Brd2(2)L383I [12] = target: T5, Brd2(2)L383I; test: Isothermal titration calorimetry (ITC); format: binding; settings: ITC at 25 °C
Brd2(1)L110A [13] = target: T7, Brd2(1)L110A; test: Isothermal titration calorimetry (ITC); format: binding; settings: ITC at 25 °C
Brd2(2)L383A [14] = target: T6, Brd2(2)L383A; test: Isothermal titration calorimetry (ITC); format: binding; settings: ITC at 25 °C
Brd2(1)L110I [15] = target: T12, Brd2(1)L110I (Homo sapiens, UniProt P25440, L110I); test: Isothermal titration calorimetry (ITC); format: binding; settings: ITC at 25 °C
T12 construct: first bromodomain (e.g., Brd2(1)) versus second bromodomain (e.g., Brd2(2)); His6 (TEV-cleavable) (N); made in house; host or cells: E. coli BL21(DE3)

Brd2(1)L110I [16] = target: T12, Brd2(1)L110I; test: Differential scanning fluorimetry (DSF) thermal shift; format: binding; settings: compound 10 μM (LightCycler480) or 30 μM (Mx3005P), read-out: Thermal stabilization (ΔTm)

T11 sequence (P25440 74-180 W97F limits assumed): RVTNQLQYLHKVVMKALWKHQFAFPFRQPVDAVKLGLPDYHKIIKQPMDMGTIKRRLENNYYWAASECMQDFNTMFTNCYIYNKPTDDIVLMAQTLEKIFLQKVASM
T12 sequence (P25440 74-180 L110I limits assumed): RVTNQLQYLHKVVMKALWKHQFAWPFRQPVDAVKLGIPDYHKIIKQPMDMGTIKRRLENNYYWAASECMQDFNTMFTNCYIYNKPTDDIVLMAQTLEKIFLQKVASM
T6 sequence (P25440 344-453 L383A limits assumed): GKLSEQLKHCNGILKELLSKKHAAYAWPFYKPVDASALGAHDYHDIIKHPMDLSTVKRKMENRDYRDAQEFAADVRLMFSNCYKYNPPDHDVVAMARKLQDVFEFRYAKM
T8 sequence (P25440 74-180 W97H limits assumed): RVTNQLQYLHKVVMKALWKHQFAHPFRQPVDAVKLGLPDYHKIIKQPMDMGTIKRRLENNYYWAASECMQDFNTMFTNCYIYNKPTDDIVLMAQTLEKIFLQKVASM
T2 sequence (P25440 74-180 limits assumed): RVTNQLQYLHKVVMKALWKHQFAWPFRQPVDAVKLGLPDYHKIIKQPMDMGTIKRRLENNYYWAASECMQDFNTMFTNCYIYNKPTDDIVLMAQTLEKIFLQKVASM
T7 sequence (P25440 74-180 L110A limits assumed): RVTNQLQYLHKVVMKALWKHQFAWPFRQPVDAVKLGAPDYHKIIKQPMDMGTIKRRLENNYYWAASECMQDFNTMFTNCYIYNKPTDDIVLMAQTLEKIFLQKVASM
T3 sequence (P25440 344-453 limits assumed): as the sequence (P25440 344-453 L383A limits assumed) above, with A40L counted along it
T10 sequence (P25440 344-453 W370H limits assumed): as the sequence (P25440 344-453 L383A limits assumed) above, with W27H, A40L counted along it
T9 sequence (P25440 344-453 W370F limits assumed): as the sequence (P25440 344-453 L383A limits assumed) above, with W27F, A40L counted along it
T5 sequence (P25440 344-453 L383I limits assumed): as the sequence (P25440 344-453 L383A limits assumed) above, with A40I counted along it
T4 sequence (P25440 344-453 V376A limits assumed): as the sequence (P25440 344-453 L383A limits assumed) above, with V33A, A40L counted along it
T1 sequence (P25440 74-180 V103A limits assumed): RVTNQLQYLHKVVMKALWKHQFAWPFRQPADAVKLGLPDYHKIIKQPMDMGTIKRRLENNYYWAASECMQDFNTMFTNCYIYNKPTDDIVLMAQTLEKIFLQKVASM

| Structure (SMILES) | ΔTm at 10 µM (Brd2(1) [2]) [°C] | ΔTm at 10 µM (Brd2(2) [3]) [°C] | ΔTm at 10 µM (Brd2(1)W097H) [°C] | ΔTm at 10 µM (Brd2(2)W370F) [°C] | ΔTm at 10 µM (Brd2(2)W370H) [°C] | ΔTm at 10 µM (Brd2(1)W097F) [°C] | further results |
| --- | --- | --- | --- | --- | --- | --- | --- |
| CC(=O)NCCCCn1c2c(c3ccccc31)C(=O)NCC2 [olinone] | – | – | – | – | – | – | Kd (Brd2(2) [1]): > 300000 nM |
| COC(=O)CC1N=C(c2ccc(Cl)cc2)c2cc(OC)cc(C)c2-n2c(C)nnc21 (stereo not drawn) [compound 15] | 0.7 ± 0.2 | 4 ± 0.1 | – | – | – | – | ΔTm at 10 µM (Brd2(1)V103A): 0.5 ± 0.3 °C; ΔTm at 10 µM (Brd2(2)V376A): 1.2 ± 0.1 °C |
| COC(=O)[C@@H](C)[C@@H]1N=C(c2ccc(Cl)cc2)c2cc(OC)ccc2-n2c(C)nnc21 [compound 16] | -0.3 | 0.2 ± 0.2 | – | – | – | – | ΔTm at 10 µM (Brd2(2)L383I [4]): 0.3 ± 0.2 °C; ΔTm at 10 µM (Brd2(2)L383A [5]): 0.8 ± 0.6 °C; ΔTm at 10 µM (Brd2(1)L110A [6]): 1.6 ± 0.2 °C; thermal stabilization, in words [7]: did not induce a significant stabilization |
| COC(=O)CC1N=C(c2cccc3[nH]ccc23)c2cc(OC)ccc2-n2c(C)nnc21 (stereo not drawn) [compound 28] | 6.8 ± 0.6 | 7.7 ± 0.2 | 0.6 ± 0.3 | 5.2 ± 0.1 | 2.7 ± 0.4 | 1.9 ± 0.5 | Kd (Brd4(2)): 50 nM; Kd (Brd2(2) [8]; ITC at 30 °C, […] DMSO): 45 nM; selectivity for the second over the first bromodomain (Brd2(2) [9]): ca. 20 fold; Kd (Brd2(1) [10]; ITC at 30 °C, […] DMSO): 780 nM; Kd (Brd4(1)): 520 nM |
| COC(=O)CC1N=C(c2cc(C)ccc2C)c2cc(OC)ccc2-n2c(C)nnc21 (stereo not drawn) [compound 26] | 1.8 ± 0.2 | 3.5 ± 0.1 | -0.4 | 0.6 ± 0.1 | -0.1 | 0.1 ± 0.2 | – |
| COC(=O)CC1N=C(c2ccc(Cl)cc2C)c2cc(OC)ccc2-n2c(C)nnc21 (stereo not drawn) [compound 24] | 6.3 ± 0.1 | 6.6 ± 0.2 | 0.9 ± 0.3 | 2.8 ± 0.1 | 1.1 ± 0.2 | 1.4 ± 0.2 | – |
| CC[C@@H](C(=O)OC)[C@@H]1N=C(c2ccc(Cl)cc2)c2cc(OC)ccc2-n2c(C)nnc21 [ET (6)] | – | – | – | – | – | – | selectivity for L/A mutants relative to WT BET bromodomains, average ([11]; average across the entire subfamily): 160 fold; affinity for leucine/alanine mutant BET bromodomains ([11]; in words): low nanomolar affinity |
| COC(=O)CC1N=C(c2cc(Cl)ccc2Cl)c2cc(OC)ccc2-n2c(C)nnc21 (stereo not drawn) [compound 27] | 1.2 ± 0.2 | 2.5 ± 0.2 | -0.4 | 0.3 | -0.4 | 0 | – |
| COC(=O)[C@H](C)[C@@H]1N=C(c2ccc(Cl)cc2)c2cc(OC)ccc2-n2c(C)nnc21 [ME] | 3.2 ± 0.2 | 5.6 ± 0.1 | – | – | – | – | ΔTm at 10 µM (Brd2(2)L383I [4]): 9.6 ± 0.1 °C; Kd (Brd2(2)L383I [12]): 27 ± 12 nM; ΔH (binding enthalpy) (Brd2(2)L383I [12]): –9.8 ± 0.1 kcal/mol; Kd (Brd2(1)L110A [13]): 17 ± 4 nM; ΔH (binding enthalpy) (Brd2(1)L110A [13]): –16.8 ± 0.2 kcal/mol; Kd (Brd2(2)L383A [14]): 22 ± 4 nM; ΔH (binding enthalpy) (Brd2(2)L383A [14]): –12.6 ± 0.1 kcal/mol; Kd (Brd2(1)L110I [15]): 260 ± 40 nM; ΔH (binding enthalpy) (Brd2(1)L110I [15]): –8.5 ± 0.1 kcal/mol; ΔTm at 10 µM (Brd2(2)L383A [5]): 9.3 ± 0.2 °C; Kd (Brd2(2) [8]; ITC at 25 °C): 300 ± 80 nM; ΔH (binding enthalpy) (Brd2(2) [8]; ITC at 25 °C): –5.4 ± 0.1 kcal/mol; Kd (Brd2(1) [10]; ITC at 25 °C): 1470 ± 180 nM; ΔH (binding enthalpy) (Brd2(1) [10]; ITC at 25 °C): –8.6 ± 0.2 kcal/mol; ΔTm at 10 µM (Brd2(1)L110I [16]): 5.7 ± 0.7 °C; ΔTm at 10 µM (Brd2(1)L110A [6]): 7.9 ± 0.2 °C |
| COC(=O)CC1N=C(c2ccc(Cl)c(C)c2)c2cc(OC)ccc2-n2c(C)nnc21 (stereo not drawn) [compound 25] | 1.5 ± 0.2 | 3.2 ± 0.1 | 0.2 ± 0.2 | 1.5 | 1 ± 0.3 | -0.1 | – |
